Test systems include A549; COLO 205; DU-145; HCT-15; HL-60; HOP-62; HT-29; Hs-578T; IGROV-1; M14; MDA-MB-231; NCI-H23; RXF 393; SK-MEL-2; SK-OV-3; SN12C; SNB-19; SNB-75; SW-620; T47D.
Common to all, as to test: NCI anticancer screen, dose series, 48 h

Molecules are shown by their SMILES.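 Briefly, cells in 96-well plates were exposed to five compound concentrations for 48 h, and endpoints were estimated by linear interpolation. GI50 marks 50% less growth.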 The source made the active and inactive calls. Cut-off read from the data, not from the text of the source: active = GI50 up to about 1.1 µM and inactive = higher.

As to `O=C1CC(n2ccnc2)c2c(Cl)sc(Cl)c21` (stereo not given), the GI50 in the assay on A549 was 24.5 µM (inactive); in the assay on COLO 205, 18.2 µM (inactive); in the assay with DU-145, 16.1 µM (inactive); in the assay on HCT-15 it was 14.2 µM; in the assay with HL-60, 51.8 µM (inactive); in the assay on HOP-62 it was 18.7 µM (inactive). The GI50 in the assay on HT-29 was 19.8 µM (inactive); with Hs-578T, 30.4 µM (inactive); in the assay with IGROV-1, 12.7 µM (inactive); in the assay on M14, 15.3 µM (inactive); with MDA-MB-231, 18.9 µM (inactive); in the assay with NCI-H23 it was 14.9 µM (inactive). Besides, the GI50 is 16.4 µM (inactive) in the assay on RXF 393; 21.4 µM (inactive) in the assay with SK-MEL-2; 23.1 µM (inactive) in the assay on SK-OV-3; 17.7 µM (inactive) with SN12C; 20.3 µM (inactive) in the assay with SNB-19; 20.6 µM (inactive) in the assay on SNB-75. Moreover, the values for the GI50 in the assay on SW-620 and in the assay on T47D were 11 µM (inactive) and 21.9 µM (inactive), respectively.

Consider `NC(=O)ON=C1CCN(Cc2ccccc2)CC1`, for which the GI50 with A549 was > 100 µM (inactive); with COLO 205, > 100 µM (inactive); with DU-145 it was > 100 µM (inactive); in the assay with HCT-15 it was more than 100 µM; in the assay with HL-60 it was > 100 µM (inactive); in the assay with HOP-62 it was > 100 µM (inactive). Also, the GI50 with HT-29, in the assay with Hs-578T, with IGROV-1, in the assay on M14, with MDA-MB-231 and in the assay on NCI-H23 was > 100 µM (inactive) each time. For the same compound, the GI50 in the assay with RXF 393 is > 100 µM (inactive); in the assay on SK-MEL-2, > 100 µM (inactive); in the assay on SK-OV-3, > 100 µM (inactive); in the assay with SN12C it was > 100 µM (inactive); in the assay on SNB-19, > 100 µM (inactive); with SNB-75 it was 74.8 µM (inactive). For the same compound, the GI50 with SW-620 and with T47D was > 100 µM (inactive) in each case.

As for `COc1ccc(/C=C2\CCS(=O)(=O)c3ccccc3C2=O)cc1`, the GI50 was 39.4 µM (inactive) with A549; 15.2 µM (inactive) with COLO 205; 23.2 µM (inactive) in the assay with DU-145; 19.6 µM in the assay on HCT-15; 21.5 µM (inactive) in the assay with HL-60; 36.3 µM (inactive) in the assay on HOP-62. In addition, the GI50 was 18.8 µM (inactive) in the assay with HT-29; 31.3 µM (inactive) in the assay with Hs-578T; 18.2 µM (inactive) in the assay with IGROV-1; 34.4 µM (inactive) with M14; 24.6 µM (inactive) in the assay with MDA-MB-231; 25.7 µM (inactive) with NCI-H23. Besides, the GI50 with RXF 393 was 22.6 µM (inactive); with SK-MEL-2 it was 31.4 µM (inactive); with SK-OV-3, 38.3 µM (inactive); in the assay with SN12C it was 28.3 µM (inactive); in the assay with SNB-19 it was 24.5 µM (inactive); in the assay on SNB-75, 33.3 µM (inactive). The GI50 was 20.9 µM (inactive) with SW-620 and 22.7 µM (inactive) with T47D.

For `C=C(Cl)c1c(OC)cccc1OCc1ccccc1`, the GI50 in the assay with A549 is > 100 µM (inactive); in the assay on COLO 205 it was 98.2 µM (inactive); in the assay with DU-145, > 100 µM (inactive); with HCT-15, 92.7 µM; with HL-60 it was 29.2 µM (inactive); in the assay with HOP-62, > 100 µM (inactive). In addition, the GI50 in the assay with HT-29 was 34.5 µM (inactive); with Hs-578T it was > 100 µM (inactive); with IGROV-1 it was 57.5 µM (inactive); with M14 it was > 100 µM (inactive); in the assay with MDA-MB-231 it was 64.7 µM (inactive); with NCI-H23, 26.1 µM (inactive). The GI50 with RXF 393 is 16.7 µM (inactive); with SK-MEL-2, > 100 µM (inactive); in the assay with SK-OV-3, > 100 µM (inactive); with SN12C, > 100 µM (inactive); in the assay with SNB-19 it was > 100 µM (inactive); in the assay with SNB-75 it was 23.5 µM (inactive). Also, the GI50 with SW-620 is 71 µM (inactive); with T47D it was 25.1 µM (inactive).

On to `CN(C)C[C@H]1CC[C@@H](CN(C)C)C1=O`, for which the GI50 in the assay with A549 was > 50 µM (inactive); in the assay on COLO 205 it was 3.67 µM (inactive); in the assay with DU-145 it was 24.3 µM (inactive); in the assay on HCT-15 it was 4.65 µM; in the assay on HL-60 it was 1.29 µM (inactive); in the assay with HOP-62, > 50 µM (inactive). Moreover, the GI50 with HT-29 is 9.84 µM (inactive); in the assay on Hs-578T it was 18.7 µM (inactive); in the assay on IGROV-1 it was 15.2 µM (inactive); in the assay with M14, 8.77 µM (inactive); in the assay on MDA-MB-231 it was 9.86 µM (inactive); in the assay with NCI-H23 it was 9.4 µM (inactive). The GI50 in the assay with RXF 393 is 9.29 µM (inactive); in the assay on SK-MEL-2 it was 7.73 µM (inactive); with SK-OV-3 it was > 50 µM (inactive); in the assay with SN12C, 8.59 µM (inactive); in the assay with SNB-19, > 50 µM (inactive); in the assay on SNB-75, 14.5 µM (inactive). The GI50 with SW-620 is 2.11 µM (inactive); with T47D, 7.03 µM (inactive).

As for `CC(=O)Oc1c(C)c2c(c3ncccc13)OC(C)C2` (stereo not given), the GI50 was 13.4 µM (inactive) in the assay with A549; 19.4 µM (inactive) in the assay with COLO 205; 16.2 µM (inactive) in the assay with DU-145; 12.1 µM in the assay with HCT-15; 7.4 µM (inactive) in the assay on HL-60; 17.1 µM (inactive) with HOP-62. The GI50 in the assay with HT-29 was 18.8 µM (inactive); in the assay with Hs-578T, 22.2 µM (inactive); in the assay with IGROV-1 it was 6.98 µM (inactive); in the assay with M14, 15.2 µM (inactive); in the assay on MDA-MB-231 it was 11.5 µM (inactive); with NCI-H23, 17.3 µM (inactive). The GI50 was 14.8 µM (inactive) in the assay with RXF 393; 18.1 µM (inactive) in the assay with SK-MEL-2; 21 µM (inactive) in the assay on SK-OV-3; 16.2 µM (inactive) with SN12C; 34 µM (inactive) with SNB-19; 14.8 µM (inactive) with SNB-75. Also, the GI50 with SW-620 was 14.2 µM (inactive); in the assay on T47D, 9.14 µM (inactive).

For `c1ccc(/C(=N/Nc2ccccn2)c2ncccn2)cc1`, the GI50 in the assay with A549 was 3.62 µM (inactive); in the assay on COLO 205, < 0.0139 µM (active); with DU-145 it was 3.99 µM (inactive); in the assay with HCT-15, 0.526 µM; in the assay with HL-60 it was 0.0524 µM (active); in the assay with HOP-62 it was 3.31 µM (inactive). Moreover, the GI50 with HT-29 was < 0.01 µM (active); in the assay with Hs-578T it was 2.59 µM (inactive); in the assay on IGROV-1 it was 2.07 µM (inactive); in the assay with M14, 0.386 µM (active); in the assay with MDA-MB-231, 0.55 µM (active); in the assay on NCI-H23, 1.74 µM (inactive). For the same compound, the GI50 in the assay on RXF 393 was 11.3 µM (inactive); with SK-MEL-2 it was > 28 µM (inactive); in the assay with SK-OV-3, 2.3 µM (inactive); in the assay on SN12C it was 0.488 µM (active); in the assay with SNB-19, 4.26 µM (inactive); in the assay on SNB-75, 1.87 µM (inactive). In addition, the GI50 in the assay with SW-620 is 0.0982 µM (active); in the assay on T47D, 0.0346 µM (active).

With `C[C@H]1[C@H](C)N1CC(O)Cn1ccnc1[N+](=O)[O-]` (stereo not given in full), the GI50 in the assay on A549 was > 100 µM (inactive); with COLO 205, > 100 µM (inactive); in the assay on DU-145 it was > 100 µM (inactive); in the assay with HCT-15 it was more than 100 µM; with HL-60, > 100 µM (inactive); in the assay on HOP-62 it was > 100 µM (inactive). Moreover, the GI50 in the assay with HT-29, with Hs-578T, with IGROV-1, with M14, in the assay with MDA-MB-231 and in the assay with NCI-H23 was > 100 µM (inactive) each time. For the same compound, the GI50 with RXF 393, in the assay on SK-MEL-2, in the assay with SK-OV-3, with SN12C, in the assay on SNB-19 and in the assay with SNB-75 was > 100 µM (inactive) throughout. Further, the GI50 in the assay on SW-620 and in the assay with T47D was > 100 µM (inactive) throughout.

On to `O=C(O)Cc1ccc(Oc2nc3ccccc3nc2-c2cccs2)cc1`, for which the GI50 in the assay on A549 is 46.7 µM (inactive); in the assay on COLO 205 it was 31 µM (inactive); in the assay with DU-145 it was 81.7 µM (inactive); with HCT-15, 35.3 µM; in the assay on HL-60 it was 55.8 µM (inactive); in the assay on HOP-62, > 100 µM (inactive). The GI50 is 42.6 µM (inactive) with HT-29; 61.7 µM (inactive) in the assay with Hs-578T; 68.9 µM (inactive) in the assay with IGROV-1; 66.4 µM (inactive) in the assay with M14; > 100 µM (inactive) in the assay on MDA-MB-231; 55.8 µM (inactive) with NCI-H23. Further, the GI50 in the assay with RXF 393 is 17.4 µM (inactive); with SK-MEL-2 it was 84.1 µM (inactive); in the assay on SK-OV-3 it was > 100 µM (inactive); in the assay on SN12C it was 84.9 µM (inactive); with SNB-19, 82.8 µM (inactive); in the assay with SNB-75 it was 27.2 µM (inactive). The results for the GI50 in the assay on SW-620 and in the assay with T47D were > 100 µM (inactive) and 20 µM (inactive), respectively.

On to `O=[N+]([O-])c1ccc(/C=N\N=c2/ccc([N+](=O)[O-])c[nH]2)cc1`, for which the GI50 was > 100 µM (inactive) with A549; > 100 µM (inactive) with COLO 205; > 100 µM (inactive) with DU-145; more than 100 µM in the assay with HCT-15; > 100 µM (inactive) in the assay with HL-60; > 100 µM (inactive) in the assay with HOP-62. Also, the GI50 is > 100 µM (inactive) in the assay on HT-29; > 100 µM (inactive) in the assay with Hs-578T; > 100 µM (inactive) with IGROV-1; > 100 µM (inactive) in the assay on M14; 46 µM (inactive) in the assay on MDA-MB-231; > 100 µM (inactive) in the assay with NCI-H23. For the same compound, the GI50 was > 100 µM (inactive) with RXF 393; > 100 µM (inactive) in the assay with SK-MEL-2; 86.9 µM (inactive) with SK-OV-3; > 100 µM (inactive) in the assay on SN12C; > 100 µM (inactive) in the assay with SNB-19; 90.6 µM (inactive) with SNB-75. Further, the GI50 in the assay with SW-620 and in the assay with T47D was > 100 µM (inactive) throughout.

These data come from ChEMBL document CHEMBL1201862, “PubChem BioAssay data set” (2004).
